Test results from patent US8541584B2, “3-(1,2,3-triazol-4-yl) pyrrolo [2,3-b] pyridine derivatives” (Merck Patent GmbH, priority 2009, dated 2013).

Experiments:
Assay type in all cases: biochemical
IKKε = molecular target: T1, IKKε (Homo sapiens, UniProt Q14164); assay: IKKε kinase test (384-well flashplate); conditions: 1 nM IKKε, 10 μM ATP, 30° C., 120 min; read-out: IC50 [IKKepsilon]
T1 sequence (Q14164 1-716): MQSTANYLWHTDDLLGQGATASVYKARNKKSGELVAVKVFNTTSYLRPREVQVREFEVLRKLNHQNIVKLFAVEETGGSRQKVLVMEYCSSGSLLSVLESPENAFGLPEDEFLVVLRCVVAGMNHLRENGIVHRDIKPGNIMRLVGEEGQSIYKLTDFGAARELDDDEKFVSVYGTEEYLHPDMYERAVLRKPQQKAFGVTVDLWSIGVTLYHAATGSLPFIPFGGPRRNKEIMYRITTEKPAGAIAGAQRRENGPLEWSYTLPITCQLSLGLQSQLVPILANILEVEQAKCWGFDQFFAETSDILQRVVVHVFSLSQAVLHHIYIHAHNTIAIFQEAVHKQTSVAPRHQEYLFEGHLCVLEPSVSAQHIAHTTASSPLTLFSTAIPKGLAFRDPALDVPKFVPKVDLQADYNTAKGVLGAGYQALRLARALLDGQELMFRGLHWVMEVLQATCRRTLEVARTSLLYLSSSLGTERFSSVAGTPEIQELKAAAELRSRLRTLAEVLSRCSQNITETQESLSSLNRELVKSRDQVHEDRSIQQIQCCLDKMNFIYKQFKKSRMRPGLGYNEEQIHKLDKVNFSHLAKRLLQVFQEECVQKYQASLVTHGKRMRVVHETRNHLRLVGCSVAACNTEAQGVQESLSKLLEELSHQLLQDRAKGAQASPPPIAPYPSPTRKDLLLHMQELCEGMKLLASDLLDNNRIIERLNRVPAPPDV
Protocol: IKKε—Kinase Test (IKKepsilon)
The kinase assay is performed as 384-well flashplate assay.
1 nM IKKε, 800 nM biotinylated IκBα(19-42) peptide (biotin-C6-C6-[…]) and 10 μM ATP (with 0.3 μCi of ^33P-ATP/well) are incubated in a total volume of 50 μl (10 mM MOPS, 10 mM magnesium acetate, 0.1 mM EGTA, 1 mM dithiothreitol, 0.02% of Brij35, 0.1% of BSA, 0.1% of BioStab, pH 7.5) with or without test substance at 30° C. for 120 min. The reaction is stopped using 25 μl of 200 mM EDTA solution, filtered off with suction after 30 min at room temperature, and the wells are washed 3 times with 100 μl of 0.9% NaCl solution. The non-specific proportion of the kinase reaction (blank) is determined using 3 μM EMD 1126352 (BX-795). Radioactivity is measured in the Topcount. IC50 values are calculated using RS1.

[1] = molecular target: T2, TANK binding kinase (TBK1) (Homo sapiens, UniProt Q9UHD2); assay: TBK1 kinase test (384-well flashplate); conditions: 0.6 nM TBK1, 10 μM ATP, 30° C., 120 min
T2 sequence (Q9UHD2 1-729): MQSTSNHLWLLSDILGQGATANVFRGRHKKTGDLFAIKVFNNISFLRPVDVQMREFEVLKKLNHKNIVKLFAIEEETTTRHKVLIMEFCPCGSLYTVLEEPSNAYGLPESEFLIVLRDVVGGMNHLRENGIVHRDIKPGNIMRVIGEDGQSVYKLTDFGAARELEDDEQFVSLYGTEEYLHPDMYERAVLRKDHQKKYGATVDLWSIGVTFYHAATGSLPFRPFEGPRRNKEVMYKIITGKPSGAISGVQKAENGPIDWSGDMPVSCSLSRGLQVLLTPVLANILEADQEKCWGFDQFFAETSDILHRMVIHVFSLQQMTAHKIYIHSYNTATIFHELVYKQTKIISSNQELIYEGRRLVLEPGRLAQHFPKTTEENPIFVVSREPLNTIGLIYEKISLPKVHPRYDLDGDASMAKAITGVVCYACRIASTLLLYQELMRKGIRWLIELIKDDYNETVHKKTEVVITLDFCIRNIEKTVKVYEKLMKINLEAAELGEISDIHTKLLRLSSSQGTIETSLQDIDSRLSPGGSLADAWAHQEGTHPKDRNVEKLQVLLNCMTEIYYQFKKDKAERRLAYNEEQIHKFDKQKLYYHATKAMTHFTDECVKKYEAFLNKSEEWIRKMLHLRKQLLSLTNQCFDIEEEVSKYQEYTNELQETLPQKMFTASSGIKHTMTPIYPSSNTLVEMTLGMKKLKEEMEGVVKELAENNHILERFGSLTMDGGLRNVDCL
Protocol: The kinase assay is performed as 384-well flashplate assay. 0.6 nM TANK binding kinase (TBK1), 800 nM biotinylated MELK-derived peptide (biotin-Ah-Ah-[…]) and 10 μM ATP (with 0.25 μCi of ^33P-ATP/well) are incubated in a total volume of 50 μl (10 mM MOPS, 10 mM magnesium acetate, 0.1 mM EGTA, 1 mM DTT, 0.02% of Brij35, 0.1% of BSA, pH 7.5) with or without test substance at 30° C. for 120 min. The reaction is stopped using 25 μl of 200 mM EDTA solution, filtered off with suction after 30 min at room temperature, and the wells are washed 3 times with 100 μl of 0.9% NaCl solution. The non-specific proportion of the kinase reaction (blank) is determined using 100 nM staurosporine. Radioactivity is measured in the Topcount. IC50 values are calculated using RS1.

PDK1 = molecular target: T3, PDK1 (Homo sapiens, UniProt O15530); assay: Test for the inhibition of PDK1 (384-well flashplate, 33P-ATP); conditions: His6-PDK1 3.4 nM, 4 μM ATP, 30° C., 60 min
T3 construct: His6 (N)
T3 sequence (O15530 51-556 limits assumed): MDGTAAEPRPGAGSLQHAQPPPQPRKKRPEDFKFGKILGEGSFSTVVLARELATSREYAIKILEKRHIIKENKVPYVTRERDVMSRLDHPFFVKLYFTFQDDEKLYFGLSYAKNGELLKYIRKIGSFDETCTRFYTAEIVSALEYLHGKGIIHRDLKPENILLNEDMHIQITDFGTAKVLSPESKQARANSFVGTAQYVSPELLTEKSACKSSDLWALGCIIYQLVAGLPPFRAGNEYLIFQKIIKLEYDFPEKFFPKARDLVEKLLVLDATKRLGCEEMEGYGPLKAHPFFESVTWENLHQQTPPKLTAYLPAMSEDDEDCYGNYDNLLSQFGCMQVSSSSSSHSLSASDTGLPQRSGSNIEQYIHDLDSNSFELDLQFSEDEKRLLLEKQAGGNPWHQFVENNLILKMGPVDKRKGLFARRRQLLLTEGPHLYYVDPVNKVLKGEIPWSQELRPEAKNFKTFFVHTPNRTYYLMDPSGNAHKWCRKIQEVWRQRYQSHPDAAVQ
Protocol: 4.0 Test for the Inhibition of PDK1
The experimental batches are carried out in a flashplate system with 384 wells/microtitration plate.
In each case, the PDK1 sample His6-PDK1(1-50)(3.4 nM), the PDK1 substrate biotin-bA-bA-[…] (400 nM), 4 μM ATP (with 0.2 μCi of ^33P-ATP/well) and the test substance in 50 μl of conventional experimental solution per well are incubated at 30° C. for 60 min. The test substances are employed in corresponding concentrations (if desired in a dilution series). The control is carried out without test substance. The reaction is stopped using standard methods and washed. The activity of the kinase is measured via the incorporated radioactivity in top count. In order to determine the non-specific kinase reaction (blank value), the experimental batches are carried out in the presence of 100 nM staurosporin.
The radioactivity (decompositions per minute) of the blank value (no use of test substance in the presence of staurosporin) is subtracted from all other radioactivity values. The controls (kinase activity without test substance) are set equal to 100 percent and all other radioactivity values (after subtracting the blank value) are expressed set in relation thereto (for example in % of the control).
IC50 values (50% inhibition) are determined with the aid of statistics programmes, such as, for example, RS1.

Measured: IC50

Cn1cc(-c2cnc3[nH]cc(-c4cn(CCc5ccccc5)nn4)c3c2)cn1 [Compound A16, 5-(1-Methyl-1H-pyrazol-4-yl)-3-(1-phenethyl-1H-1,2,3-triazol-4-yl)-1H-pyrrolo[2,3-b]-pyridine]
0.0005 to 1 µM: all assays above

Cn1cc(-c2cnc3[nH]cc(-c4cn(CCN5CCOCC5)nn4)c3c2)cn1 [Compound A18, 5-(1-Methyl-1H-pyrazol-4-yl)-3-[1-(2-morpholin-4-ylethyl)-1H-1,2,3-triazol-4-yl]-1H-pyrrolo[2,3-b]pyridine]
0.0005 to 1 µM: all assays above
